According to patent US12668584B2, “Heterocyclic compounds as kinase inhibitors for therapeutic uses” (National Health Research Institutes, priority 2019, dated 2026):

Columns and labels:
[1] = target: T1, CSF1R kinase (recombinant N-terminal GST-CSF1R, residues L534-C972) (Homo sapiens, UniProt P07333); assay: CSF1R Kinase-Glo assay; assay type: biochemical; settings: 40 μM ATP, 30° C. 180 min, read-out: Enzymatic Assay CSF1R enzyme IC50
T1 construct: Recombinant N-terminal GST-CSF1R (CSF1R residues L534-C972) containing the CSFIR kinase domain; made in house; host or cells: Sf9 insect cells
T1 sequence (P07333 534-972): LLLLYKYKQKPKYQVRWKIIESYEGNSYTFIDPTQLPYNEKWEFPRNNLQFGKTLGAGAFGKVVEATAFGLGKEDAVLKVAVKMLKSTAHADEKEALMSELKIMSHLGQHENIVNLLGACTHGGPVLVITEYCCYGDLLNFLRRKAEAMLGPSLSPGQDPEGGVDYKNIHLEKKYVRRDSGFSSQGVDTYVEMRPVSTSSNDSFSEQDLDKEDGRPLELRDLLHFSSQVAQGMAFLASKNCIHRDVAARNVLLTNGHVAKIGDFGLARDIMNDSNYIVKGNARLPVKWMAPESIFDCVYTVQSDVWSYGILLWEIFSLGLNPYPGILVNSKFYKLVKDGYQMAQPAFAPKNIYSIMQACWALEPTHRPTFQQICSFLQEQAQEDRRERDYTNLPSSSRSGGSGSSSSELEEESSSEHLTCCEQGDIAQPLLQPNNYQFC
Method: A study was conducted to test certain compounds described in EXAMPLE 1 in inhibiting CSF1R kinase activity.
Activity of CSF1R kinase was determined using a CSF1R Kinase-Glo assay. Recombinant N-terminal GST-CSF1R (CSF1R residues L534-C972) containing the CSFIR kinase domain was expressed in Sf9 insect cells and purified. The kinase assay was carried out in 96-well plates at 30° C. for 180 min with the tested compounds in a final volume of 50 μl including the following components: 25 mM Tris-HCl pH 7.4, 4 mM MnCl2, 10 mM MgCl2, 0.01% BSA, 0.5 mM NA3VO4, 0.02% Triton X-100, 40 μM ATP, 2 mM DTT and 20 μM poly(Glu,Tyr) 4:1 peptide, and 600 ng recombinant GST-CSF1R. Following incubation, 50 μl Kinase-Glo Plus Reagent (Promega, Madison, WI, USA) was added and the mixture was incubated at 25° C. for 20 min. A 70-μL aliquot of each reaction mixture was transferred to a black microtiter plate and luminescence was measured on Wallac Vector 1420 multilabel counter (PerkinElmer, Shelton, CT, USA). Percentage inhibition values were obtained by comparison of reaction rate with the rates in control wells (i.e., in the absence of test compound). IC50 values were calculated from a series of percentage inhibition values determined at a range of test compound concentrations using GraphPad Prism version 6 software (GraphPad, San Diego, CA, USA).

M-NFS-60 cells = assay: MTS cell viability assay, M-NFS-60; assay type: cell-based; settings: 72 h, read-out: Cellular Proliferation Assay M-NFS-60 (nM) GI50
Method: (§1) Studies were conducted to evaluate […] anticancer activity of certain compounds described in EXAMPLE 1 using 3-(4,5-dimethylthiazol-2-yl)-5-(3-carboxymethoxyphenyl)-2-(4-sulfophenyl)-2H-tetrazolium) (MTS) cell viability assays. Results from these studies are shown in Table 2 below (see columns 3 and 4).
(§2) The cell lines M-NFS-60 (ATCC® CRL-1838™) and BaF3-CSF1R-1600 were obtained from American Type Culture Collection (ATCC, Manassas, VA, USA). The stable BaF3-CSF1R-1600 cell line expresses ETV6-CSF1R fusion protein consisting of N-terminal ETS-variant gene 6 protein (ETV6 residues M1-G337) and CSF1R tyrosine kinase (CSF1R residues L533-C972). The M-NSF-60 and BaF3-CSF1R-1600 cells were cultured in RPMI1640 medium supplemented with 10% fetal bovine serum, 0.05 mM 2-ME, 10 U/ml penicillin, and 10 µg/ml streptomycin at 37° C. and 5% CO2.
(§3) M-NFS-60 and BaF3-CSF1R-1600 cells were seeded in 96-well plates at a density of 10000 cells/100 μl and 8000 cells/100 μl per well, respectively, for 16 h and treated with vehicle or various concentrations of test compounds in medium for 72 h. Viable cells were quantified using the MTS method (Promega, Madison, WI, USA) according to manufacturer's recommended protocol. The results were determined by measuring absorbance at 490 nm using a plate reader (Victor 2). The GI50 value was defined as the amount of compound that caused 50% reduction in cell viability in comparison with DMSO-treated (vehicle) control and was calculated using Prism GraphPad Prism version 6 software (GraphPad).

[2] = test system: BaF3-CSF1R-1600 cells (express ETV6-CSF1R fusion protein); assay: MTS cell viability assay, BaF3-CSF1R-1600; assay type: cell-based; settings: 72 h, read-out: Cellular Proliferation Assay BaF3-CSF1R GI50
Method: as §1, §2, §3

IC50 [1] [nM] | GI50 [2] [nM] | Compound | GI50 (M-NFS-60 cells) [nM]
< 20 | < 20 | O=C(NCc1ccc(C(F)(F)F)nc1)Nc1ccc(Oc2ncnc3cc(N4CCN(C5COC5)CC4)ccc23)cc1 [Compound 98] | 20 to 100
100 to 1000 | 100 to 1000 | O=C(NCc1ccc(C(F)(F)F)nc1)Nc1ccc(Oc2ncnc3cc(Br)ccc23)cc1 [Compound 31, 1-(4-((7-Bromoquinazolin-4-yl)oxy)phenyl)-3-((6-(trifluoromethyl)pyridin-3-yl)methyl)urea] | > 1000
< 20 | 20 to 100 | CN(C)c1ccc2c(Oc3ccc(NC(=O)Nc4cccc(Cl)c4)cc3)ncnc2c1 [Compound 16] | 20 to 100
